# Laboratory results reported in patent US9982017B2, “Synthetic apelin mimetics for the treatment of heart failure” (priority 2012, dated 2018).
# Where a SMILES comes first, the peptide text is derived from it. Bridges are numbered along the chain shown (N, C = ends). [ ]: non-standard residue; d: D form. The star is where a group is joined. Palmitoyl = CCCCCCCCCCCCCCCC(=O)*; pGlu = O=C1CC[C@@H](C(=O)O)N1; NHPhenethyl = c1ccc(CCN*)cc1; Nle = CCCC[C@H](N)C(=O)O; Api = NC1(C(=O)O)CCNCC1; Aib = CC(C)(N)C(=O)O; Inp = O=C(O)C1CCNCC1
# Assay: in vitro
# Settings: rat, not told, Surrogate activity-based Plasma stability t½
row,Structure (SMILES),half-life [h]
1,"CCCC[C@@H]1NC(=O)[C@@H]2CCCN2C(=O)CNC(=O)[C@H](CCCCN)NC(=O)C(C)(C)NC(=O)[C@@H](NC(=O)[C@H](CC(C)C)NC(=O)[C@H](CCCNC(=N)N)NC(=O)[C@@H]2CCCN2C(=O)[C@H](CCCNC(=N)N)NC(=O)C2CCNCC2)CSSC[C@@H](C(=O)N[C@H](Cc2ccccc2)C(=O)O)NC1=O [Example 11, H-Isn-R-P-R-L-C-Aib-K-G-P-Nle-C-f-OH] (H-[Inp]RPRLC[Aib]KGP[Nle]C[dF]-OH; disulfide 6-12)",> 16.7
2,"CCCC[C@@H]1NC(=O)[C@@H]2CCCN2C(=O)CNC(=O)[C@H](Cc2ccccc2)NC(=O)[C@H](Cc2c[nH]cn2)NC(=O)[C@@H](NC(=O)[C@H](CC(C)C)NC(=O)[C@H](CCCNC(=N)N)NC(=O)[C@@H]2CCCN2C(=O)[C@H](CCCNC(=N)N)NC(=O)[C@@H]2CCC(=O)N2)CSSC[C@@H](C(=O)NCCc2ccccc2)NC1=O [Example 19, pE-R-P-R-L-C-H-F-G-P-Nle-C-Phenethylamine] ([pGlu]RPRLCHFGP[Nle]C-NHPhenethyl; disulfide 6-12)",0.473
3,"CCCC[C@@H]1NC(=O)[C@@H]2CCCN2C(=O)CNC(=O)C2(CCNCC2)NC(=O)[C@H](Cc2c[nH]cn2)NC(=O)[C@@H](NC(=O)[C@H](CC(C)C)NC(=O)[C@H](CCCNC(=N)N)NC(=O)[C@@H]2CCCN2C(=O)[C@H](CCCNC(=N)N)NC(=O)[C@@H]2CCC(=O)N2)CSSC[C@@H](C(=O)N[C@@H](Cc2ccccc2)C(=O)O)NC1=O [Example 21, pE-R-P-R-L-C-H-(4-NH-Isn)-G-P-Nle-C-F-OH] ([pGlu]RPRLCH[Api]GP[Nle]CF-OH; disulfide 6-12)",10.7
4,"CCCCCCCCCCCCCCCC(=O)NCCCC[C@H](NC(=O)[C@@H]1CSSC[C@H](NC(=O)[C@H](CC(C)C)NC(=O)[C@H](CCCNC(=N)N)NC(=O)[C@@H]2CCCN2C(=O)[C@H](CCCNC(=N)N)NC(=O)[C@@H]2CCC(=O)N2)C(=O)N[C@@H](Cc2c[nH]cn2)C(=O)N[C@@H](CCCCN)C(=O)NCC(=O)N2CCC[C@H]2C(=O)N[C@@H](CCCC)C(=O)N1)C(=O)O [Example 22, pE-R-P-R-L-C-H-K-G-P-Nle-C-K(Palmitoyl)-OH] ([pGlu]RPRLCHKGP[Nle]CK(Palmitoyl)-OH; disulfide 6-12)",13.3

# Other lines, results leading:
row,half-life [h],Structure (SMILES)
1,> 16.7,"CCCC[C@@H]1NC(=O)[C@@H]2CCCN2C(=O)CNC(=O)[C@H](CCCCN)NC(=O)C(C)(C)NC(=O)[C@@H](NC(=O)[C@H](CC(C)C)NC(=O)[C@H](CCCNC(=N)N)NC(=O)[C@@H]2CCCN2C(=O)[C@H](CCCNC(=N)N)NC(=O)[C@@H]2CCC(=O)N2)CSSC[C@@H](C(=O)N[C@H](Cc2ccccc2)C(=O)O)NC1=O [Example 10, pE-R-P-R-L-C-Aib-K-G-P-Nle-C-f-OH] ([pGlu]RPRLC[Aib]KGP[Nle]C[dF]-OH; disulfide 6-12)"
2,3.01,"CCCC[C@@H]1NC(=O)[C@@H]2CCCN2C(=O)CNC(=O)[C@H](CCCCN)NC(=O)[C@H](Cc2ccccc2)NC(=O)[C@@H](NC(=O)[C@H](CC(C)C)NC(=O)[C@H](CCCNC(=N)N)NC(=O)[C@@H]2CCCN2C(=O)[C@H](CCCNC(=N)N)NC(=O)[C@@H]2CCC(=O)N2)CSSC[C@@H](C(=O)N[C@@H](Cc2ccccc2)C(=O)O)NC1=O [Example 15, pE-R-P-R-L-C-F-K-G-P-Nle-C-F-OH] ([pGlu]RPRLCFKGP[Nle]CF-OH; disulfide 6-12)"
3,8.17,"CCCC[C@@H]1NC(=O)[C@@H]2CCCN2C(=O)C(C)(C)NC(=O)[C@H](CCCCN)NC(=O)[C@H](Cc2c[nH]cn2)NC(=O)[C@@H](NC(=O)[C@H](CC(C)C)NC(=O)[C@H](CCCNC(=N)N)NC(=O)[C@@H]2CCCN2C(=O)[C@H](CCCNC(=N)N)NC(=O)[C@@H]2CCC(=O)N2)CSSC[C@@H](C(=O)N[C@@H](Cc2ccccc2)C(=O)O)NC1=O [Example 20, pE-R-P-R-L-C-H-K-Aib-P-Nle-C-F-OH] ([pGlu]RPRLCHK[Aib]P[Nle]CF-OH; disulfide 6-12)"
